Measurements as given in ChEMBL document CHEMBL1136447, “Biological investigation and structure-activity relationship studies on azadirone from Azadirachta indica A. Juss” (2003).

Assays:
U-251 [1] = assay: In vitro cytotoxic activity against CNS(U251) cell line; format: functional; settings: Homo sapiens
MCF7 [2] = assay: In vitro cytotoxic activity against breast (MCF-7/ADR) cell line at a concentration of 10e-5 M; format: functional, Homo sapiens
DU-145 [3] = assay: In vitro cytotoxic activity against prostate (DU145) cell line; format: functional; settings: Homo sapiens
SK-OV-3 [4] = assay: In vitro cytotoxic activity against Ovarian (SK-OV3) cell line; format: functional; settings: Homo sapiens
NCI-H522 [5] = assay: In vitro cytotoxic activity against lung (H522) cell line; settings: Homo sapiens
SW-620 [6] = assay: In vitro cytotoxic activity against colon (SW620) cell line at a concentration of 10e-5 M; format: functional, Homo sapiens
DU-145 [7] = assay: In vitro cytotoxic activity against prostate (DU145) cell line at a concentration of 10e-5 M; format: functional, Homo sapiens
A498 [8] = assay: In vitro cytotoxic activity against renal (A498) cell line; format: functional; settings: Homo sapiens
NCI-H522 [9] = assay: In vitro cytotoxic activity against lung (H522) cell line at a concentration of 10e-5 M; format: functional, Homo sapiens
M14 [10] = assay: In vitro cytotoxic activity against Melanoma (M14) cell line; format: functional; settings: Homo sapiens
SW-620 [11] = assay: In vitro cytotoxic activity against colon (SW620) cell line; format: functional; settings: Homo sapiens
SK-OV-3 [12] = assay: In vitro cytotoxic activity against Ovarian (SK-OV3) cell line at a concentration of 10e-5 M; format: functional, Homo sapiens
M14 [13] = assay: In vitro cytotoxic activity against Melanoma (M14) cell line at a concentration of 10e-5 M; format: functional, Homo sapiens
U-251 [14] = assay: In vitro cytotoxic activity against CNS(U251) cell line at a concentration of 10e-5 M; format: functional, Homo sapiens
MCF7 [15] = assay: In vitro cytotoxic activity against breast (MCF-7/ADR) cell line; format: functional; settings: Homo sapiens
A498 [16] = assay: In vitro cytotoxic activity against renal (A498) cell line at a concentration of 10e-5 M; format: functional, Homo sapiens
Mus musculus [17] = assay: In vivo potential in Swiss Albino Mice using modified hollow fiber assay at the dose of 75 mg/kg by ip administration; format: functional; settings: route intraperitoneal
Mus musculus [18] = assay: In vivo potential in Swiss Albino Mice using modified hollow fiber assay at the dose of 150 mg/kg as total score; format: functional
NCI-H522 [19] = assay: In vitro cytotoxic activity against lung (H522) cell line at a concentration of 10e-5 M
Mus musculus [20] = assay: In vivo potential in Swiss Albino Mice using modified hollow fiber assay at the dose of 150 mg/kg by ip administration; format: functional; settings: route intraperitoneal
Mus musculus [21] = assay: In vivo potential in Swiss Albino Mice using modified hollow fiber assay at the dose of 75 mg/kg by sc administration; format: functional; settings: route subcutaneous
Mus musculus [22] = assay: In vivo potential in Swiss Albino Mice using modified hollow fiber assay at the dose of 75 mg/kg as total score; format: functional
Mus musculus [23] = assay: In vivo potential in Swiss Albino Mice using modified hollow fiber assay at the dose of 150 mg/kg by sc administration; format: functional; settings: route subcutaneous
Mus musculus [24] = assay: In vivo potential in Swiss Albino Mice using modified hollow fiber assay at the dose of 100 mg/kg by ip administration; format: functional; settings: route intraperitoneal
Mus musculus [25] = assay: In vivo potential in Swiss Albino Mice using modified hollow fiber assay at the dose of 100 mg/kg by sc administration; format: functional; settings: route subcutaneous
Mus musculus [26] = assay: In vivo potential in Swiss Albino Mice using modified hollow fiber assay at the dose of 50 mg/kg as total score; format: functional
Mus musculus [27] = assay: In vivo potential in Swiss Albino Mice using modified hollow fiber assay at the dose of 50 mg/kg by ip administration; format: functional; settings: route intraperitoneal
Mus musculus [28] = assay: In vivo potential in Swiss Albino Mice using modified hollow fiber assay at the dose of 100 mg/kg as total score; format: functional
Mus musculus [29] = assay: In vivo potential in Swiss Albino Mice using modified hollow fiber assay at the dose of 50 mg/kg by sc administration; format: functional; settings: route subcutaneous
NCI-H522 [30] = assay: In vitro cytotoxicity against H522 (human adenocarcinoma) cell line at a concentration of 10e-5 M.

| SMILES | GI50 (U-251 [1]) | Growth (MCF7 [2]) | GI50 (DU-145 [3]) | GI50 (SK-OV-3 [4]) | GI50 (NCI-H522 [5]) | Growth (SW-620 [6]) | Growth (DU-145 [7]) | GI50 (A498 [8]) | GI50 (M14 [10]) | GI50 (SW-620 [11]) | Growth (SK-OV-3 [12]) | Growth (M14 [13]) | Growth (U-251 [14]) | GI50 (MCF7 [15]) | Growth (A498 [16]) | Score (Mus musculus [17]) | Score (Mus musculus [18]) | Score (Mus musculus [20]) | Score (Mus musculus [21]) | Score (Mus musculus [22]) | further results |
| --- | --- | --- | --- | --- | --- | --- | --- | --- | --- | --- | --- | --- | --- | --- | --- | --- | --- | --- | --- | --- | --- |
| CC1(C)C(=O)C=C[C@@]2(C)C1CC(=O)[C@@]1(C)C3=CC[C@@H](c4ccoc4)[C@]3(C)CCC12 (some centres not stated) | 6 µM | 30% | 6 µM | 7.5 µM | 25 µM | 3% | 7% | 4 µM | 0.6 µM | 3 µM | 43% | 7% | 27% | 3 µM | 9% |  |  |  |  |  | Growth (NCI-H522 [9]): 43% |
| CC(=O)O[C@@H]1CC2C(C)(C)C(=O)C=C[C@]2(C)C2CC[C@]3(C)C(=CC[C@H]3c3ccoc3)[C@@]21C (some centres not stated) | 2.5 µM | -18% | 0.05 µM | 5 µM | 6 µM | 29% | -6% | 2 µM | 0.08 µM | 7 µM | 30% | -6% | -4% | 0.06 µM | 23% | 14 | 48 | 24 | 12 | 36 | Growth (NCI-H522 [19]): 29%; Score (Mus musculus [23]): 24 |
| CC(=O)O[C@@H]1CC2C(C)(C)/C(=N/OCCN3CCCC3)C=C[C@]2(C)C2CC[C@]3(C)C(=CC[C@H]3c3ccoc3)[C@@]21C (some centres not stated) | 4 µM | 22% | 6 µM | 4 µM | 4 µM | -51% | 32% | 4 µM | 5 µM | 3 µM | -35% | 26% | -24% | 3 µM | -16% |  |  |  |  |  | Score (Mus musculus [24]): 24; Score (Mus musculus [25]): 22; Score (Mus musculus [26]): 22; Score (Mus musculus [27]): 14; Score (Mus musculus [28]): 46; Score (Mus musculus [29]): 8; Growth (NCI-H522 [30]): -13.9% |
| CC(=O)O[C@H]1C[C@@H](OC(C)=O)C(C)(C)C2C[C@@H](OC(C)=O)[C@@]3(C)C4=CC[C@@H](c5ccoc5)[C@]4(C)CCC3[C@]21C (some centres not stated) | 30 µM | 38% | 4 µM | 9 µM | 40 µM | -60% | -19% | 15 µM | 5 µM | 3 µM | 42% | -22% | -24% | 4 µM | -5% | 12 | 48 | 24 | 6 | 18 | Score (Mus musculus [23]): 24; Growth (NCI-H522 [30]): 8% |
